{"source": "ChEMBL document CHEMBL5608163", "about": "“Structure modification of anoplin for fighting resistant bacteria” (Eur J Med Chem, 2024)", "key": {"Erythrocyte": {"tested_on": "Erythrocyte", "assay": "Hemolytic activity in mouse RBC", "format": "toxicity, cell-based"}, "Staphylococcus aureus [1]": {"tested_on": "Staphylococcus aureus", "assay": "Antimicrobial activity against Staphylococcus aureus assessed as reduction in microbial growth by broth microdilution method", "format": "functional"}, "Escherichia coli [2]": {"tested_on": "Escherichia coli", "assay": "Antimicrobial activity against Escherichia coli assessed as reduction in microbial growth by broth micro-dilution method", "format": "functional"}, "[3]": {"assay": "Hemolytic activity in mouse erythrocyte incubated for 1 hr by microplate reader analysis", "format": "toxicity, cell-based", "conditions": "erythrocytes"}, "Bacillus subtilis": {"tested_on": "Bacillus subtilis", "assay": "Antibacterial activity against Bacillus subtilis ATCC 23857 assessed as reduction in bacterial cell growth measured for 18 hrs by Mueller-Hinton broth based two-fold serial dilution method", "format": "functional"}, "[4]": {"assay": "Hemolytic activity in mouse Red blood cells incubated for 1 hr by microplate reader assay", "format": "toxicity, cell-based, Erythrocyte", "conditions": "red blood cells"}, "Klebsiella pneumoniae": {"tested_on": "Klebsiella pneumoniae", "assay": "Antibacterial activity against Klebsiella pneumoniae ATCC 700603 assessed as reduction in bacterial cell growth measured for 18 hrs by Mueller-Hinton broth based two-fold serial dilution method", "format": "functional"}, "Escherichia coli [5]": {"tested_on": "Escherichia coli", "assay": "Antibacterial activity against Escherichia coli ATCC 25922 assessed as reduction in bacterial cell growth measured for 18 hrs by Mueller-Hinton broth based two-fold serial dilution method", "format": "functional"}, "Pseudomonas aeruginosa": {"tested_on": "Pseudomonas aeruginosa", "assay": "Antibacterial activity against Pseudomonas aeruginosa ATCC 27853 assessed as reduction in bacterial cell growth measured for 18 hrs by Mueller-Hinton broth based two-fold serial dilution method", "format": "functional"}, "Staphylococcus aureus [6]": {"tested_on": "Staphylococcus aureus", "assay": "Antibacterial activity against Staphylococcus aureus ATCC 25923 assessed as reduction in bacterial cell growth measured for 18 hrs by Mueller-Hinton broth based two-fold serial dilution method", "format": "functional"}, "Escherichia coli [7]": {"tested_on": "Escherichia coli", "assay": "Antibacterial activity against Escherichia coli ATCC 25922 assessed as reduction in bacterial growth measured after 24 hrs by Mueller-Hinton broth based two-fold serial dilution method", "format": "functional"}, "Staphylococcus aureus [8]": {"tested_on": "Staphylococcus aureus", "assay": "Antibacterial activity against Staphylococcus aureus ATCC 25923 assessed as reduction in bacterial growth measured after 24 hrs by Mueller-Hinton broth based two-fold serial dilution method", "format": "functional"}, "Escherichia coli [9]": {"tested_on": "Escherichia coli", "assay": "Antibacterial activity against Escherichia coli", "format": "functional"}, "Staphylococcus aureus [10]": {"tested_on": "Staphylococcus aureus", "assay": "Antibacterial activity against Staphylococcus aureus", "format": "functional"}}, "note": "Square brackets hold non-standard residues; d marks the D form. Peptide text beside a SMILES is read from it. * marks the point of attachment. NMeR = CN[C@@H](CCCNC(=N)N)C(=O)O; Tridecanoyl = CCCCCCCCCCCCC(=O)*; NMeK = CN[C@@H](CCCCN)C(=O)O; Nonanoyl = CCCCCCCCC(=O)*; Nphe = O=C(O)CNCc1ccccc1; NBuGly = CCCCNCC(=O)O", "data": [{"smiles": "CCCCNCC(=O)N[C@@H](CC(C)C)C(=O)N[C@@H](CC(C)C)C(=O)N[C@@H](CCCCN)C(=O)N[C@@H](CCCNC(=N)N)C(=O)N[C@H](C(=O)N[C@@H](CCCCN)C(=O)N[C@H](C(=O)N[C@@H](CC(C)C)C(=O)N[C@@H](CC(C)C)C(N)=O)[C@@H](C)O)[C@@H](C)CC", "note": "(H-[NBuGly]LLKRIKTLL-NH2)", "values": [{"measurement": "HC10", "setting": "Erythrocyte", "value": "> 50", "unit": "µM"}, {"measurement": "MIC", "setting": "Staphylococcus aureus [1]", "value": "> 100", "unit": "µM"}, {"measurement": "MIC", "setting": "Escherichia coli [2]", "value": 100, "unit": "µM"}]}, {"smiles": "CCCCCCCCCCCCC(=O)NCC(=O)N[C@@H](CC(C)C)C(=O)N[C@@H](CC(C)C)C(=O)N[C@@H](CCCCN)C(=O)N(C)[C@@H](CCCNC(=N)N)C(=O)N[C@H](C(=O)N(C)[C@@H](CCCCN)C(=O)N[C@H](C(=O)N[C@@H](CC(C)C)C(=O)N[C@@H](CC(C)C)C(N)=O)[C@@H](C)O)[C@@H](C)CC", "note": "(Tridecanoyl-GLLK[NMeR]I[NMeK]TLL-NH2)", "values": [{"measurement": "HC50 at 1 h", "setting": "[3]", "value": 64, "unit": "µM"}, {"measurement": "MIC", "setting": "Bacillus subtilis", "value": 4, "unit": "µM"}, {"measurement": "HC50 at 1 h", "setting": "[4]", "value": 64, "unit": "µM"}, {"measurement": "MIC", "setting": "Klebsiella pneumoniae", "value": 32, "unit": "µM"}, {"measurement": "MIC", "setting": "Escherichia coli [5]", "value": 8, "unit": "µM"}, {"measurement": "MIC", "setting": "Pseudomonas aeruginosa", "value": 8, "unit": "µM"}, {"measurement": "MIC", "setting": "Staphylococcus aureus [6]", "value": 8, "unit": "µM"}]}, {"smiles": "CC[C@H](C)[C@H](NC(=O)[C@H](CCCNC(=N)N)NC(=O)[C@H](CCCCN)NC(=O)[C@H](CC(C)C)NC(=O)[C@H](CC(C)C)NC(=O)CN)C(N)=O", "note": "(H-GLLKRI-NH2)", "values": [{"measurement": "MIC", "setting": "Escherichia coli [7]", "value": 54.6, "unit": "µM"}, {"measurement": "MIC", "setting": "Staphylococcus aureus [8]", "value": "> 54.6", "unit": "µM"}]}, {"smiles": "CC[C@H](C)[C@H](NC(=O)[C@H](CCCNC(=N)N)NC(=O)[C@H](CCCCN)NC(=O)[C@H](CC(C)C)NC(=O)[C@H](CC(C)C)NC(=O)CN)C(=O)N[C@@H](CCCCN)C(=O)N[C@H](C(N)=O)[C@@H](C)O", "note": "(H-GLLKRIKT-NH2)", "values": [{"measurement": "MIC", "setting": "Escherichia coli [7]", "value": 24.8, "unit": "µM"}, {"measurement": "MIC", "setting": "Staphylococcus aureus [8]", "value": "> 24.8", "unit": "µM"}]}, {"smiles": "CC[C@H](C)[C@H](NC(=O)[C@H](CCCNC(=N)N)NC(=O)[C@H](CCCCN)NC(=O)[C@H](CC(C)C)NC(=O)[C@H](CC(C)C)NC(=O)CNCc1ccccc1)C(=O)N[C@@H](CCCCN)C(=O)N[C@H](C(=O)N[C@@H](CC(C)C)C(=O)N[C@@H](CC(C)C)C(N)=O)[C@@H](C)O", "note": "(H-[Nphe]LLKRIKTLL-NH2)", "values": [{"measurement": "HC10", "setting": "Erythrocyte", "value": "> 50", "unit": "µM"}, {"measurement": "MIC", "setting": "Staphylococcus aureus [1]", "value": "> 100", "unit": "µM"}, {"measurement": "MIC", "setting": "Escherichia coli [2]", "value": 50, "unit": "µM"}]}, {"smiles": "CC[C@H](C)[C@H](NC(=O)[C@H](CCCNC(=N)N)NC(=O)[C@H](CCCCN)NC(=O)[C@H](CC(C)C)NC(=O)[C@H](CC(C)C)NC(=O)CN)C(=O)N[C@@H](CCCCN)C(N)=O", "note": "(H-GLLKRIK-NH2)", "values": [{"measurement": "MIC", "setting": "Escherichia coli [7]", "value": 33.9, "unit": "µM"}, {"measurement": "MIC", "setting": "Staphylococcus aureus [8]", "value": "> 33.9", "unit": "µM"}]}, {"smiles": "CCCCCCCCC(=O)NCC(=O)N[C@@H](CC(C)C)C(=O)N[C@@H](CC(C)C)C(=O)N[C@@H](CCCCN)C(=O)N(C)[C@@H](CCCNC(=N)N)C(=O)N[C@H](C(=O)N(C)[C@@H](CCCCN)C(=O)N[C@H](C(=O)N[C@@H](CC(C)C)C(=O)N[C@@H](CC(C)C)C(N)=O)[C@@H](C)O)[C@@H](C)CC", "note": "(Nonanoyl-GLLK[NMeR]I[NMeK]TLL-NH2)", "values": [{"measurement": "HC50 at 1 h", "setting": "[3]", "value": "> 256", "unit": "µM"}, {"measurement": "MIC", "setting": "Bacillus subtilis", "value": 8, "unit": "µM"}, {"measurement": "HC50 at 1 h", "setting": "[4]", "value": "> 256", "unit": "µM"}, {"measurement": "MIC", "setting": "Klebsiella pneumoniae", "value": "> 128", "unit": "µM"}, {"measurement": "MIC", "setting": "Escherichia coli [5]", "value": 128, "unit": "µM"}, {"measurement": "MIC", "setting": "Pseudomonas aeruginosa", "value": 32, "unit": "µM"}, {"measurement": "MIC", "setting": "Staphylococcus aureus [6]", "value": 128, "unit": "µM"}]}, {"smiles": "CC[C@H](C)[C@H](NC(=O)[C@H](CCCNC(=N)N)NC(=O)[C@H](CCCCN)NC(=O)[C@H](CC(C)C)NC(=O)[C@H](CC(C)C)NC(=O)CN)C(=O)N[C@@H](CCCCN)C(=O)N[C@H](C(=O)N[C@@H](CC(C)C)C(=O)N[C@@H](CC(C)C)C(=O)O)[C@@H](C)O", "note": "(H-GLLKRIKTLL-OH)", "values": [{"measurement": "MIC", "setting": "Escherichia coli [7]", "value": 41.4, "unit": "µM"}, {"measurement": "MIC", "setting": "Staphylococcus aureus [8]", "value": "> 41.4", "unit": "µM"}]}, {"smiles": "CC[C@H](C)[C@H](NC(=O)[C@@H](NC(=O)[C@H](CCCCN)NC(=O)[C@H](CC(C)C)NC(=O)[C@H](CC(C)C)NC(=O)[C@@H](N)CCCCN)C(C)C)C(=O)N[C@@H](CCCCN)C(=O)N[C@@H](CCCCN)C(=O)N[C@@H](CC(C)C)C(=O)N[C@@H](CC(C)C)C(N)=O", "note": "(H-KLLKVIKKLL-NH2)", "values": [{"measurement": "MIC", "setting": "Escherichia coli [9]", "value": 5, "unit": "µM"}, {"measurement": "MIC", "setting": "Staphylococcus aureus [10]", "value": 7.5, "unit": "µM"}]}, {"smiles": "CC[C@H](C)[C@H](NC(=O)[C@H](CCCNC(=N)N)NC(=O)[C@@H](N)CCCCN)C(=O)N[C@@H](CCCCN)C(=O)N[C@H](C(=O)N[C@@H](CC(C)C)C(=O)N[C@@H](CC(C)C)C(N)=O)[C@@H](C)O", "note": "(H-KRIKTLL-NH2)", "values": [{"measurement": "MIC", "setting": "Escherichia coli [7]", "value": 70.2, "unit": "µM"}, {"measurement": "MIC", "setting": "Staphylococcus aureus [8]", "value": "> 70.2", "unit": "µM"}]}, {"smiles": "CC(C)C[C@H](NC(=O)CN)C(=O)N[C@@H](CC(C)C)C(=O)N[C@@H](CCCCN)C(=O)N[C@@H](CCCNC(=N)N)C(N)=O", "note": "(H-GLLKR-NH2)", "values": [{"measurement": "MIC", "setting": "Escherichia coli [7]", "value": 53.2, "unit": "µM"}, {"measurement": "MIC", "setting": "Staphylococcus aureus [8]", "value": "> 53.2", "unit": "µM"}]}]}
